Results as given in patent US6831100B2, “Menthyl benzoate formulations for external UV protection” (priority 2000, dated 2004).

What was measured:
[1] = system: Escherichia coli wild type strain CA 8000; experiment: UV protection assay for bacteria cultivated in presence of the compounds; format: cell-based; conditions: for Titre estimated (cfu), Initial: bacteria grown in presence of compound, before UV exposure, control 3.73 × 10^7; for Killing % in comparison to the control: bacteria grown with compound, UV exposed
Source text: (§1) UV light is not only harmful to humans but also to all other biological systems including microorganisms. The majority of the studies of the effect of UV light on microbes and its modes of action have shown the formation of thymidine dimers, which cause mutations and excessive exposure thus leads to death of the bacteria. […] Therefore, the assays involving the screening of potential UV protectant compounds against bacterial system exposure in presence and absence of test compound is easy, less time consuming and environmentally safe. We carried out simple experiments involving the bacterium Escherichia coli (Wild type) (Kumar, 5. 1976. Journal of Bacteriology, 125: 545-555) as the test system. Escherichia coli is a Gram negative bacterium and sensitive to ultraviolet light. The bacterial cells were grown in broth cultures were exposed to UV light for different time periods and the survival in terms of colony forming units was determined to estimate the killing percentage. The experiments comprised of a series of different steps in two distinct manners/routes (Example 1 and 2 below). In these examples, various quantities were mentioned are not confined to the said limits but can be variable depending upon the need and scale of experiment or screen to be employed. Two different approaches as described below were followed. In one case, the bacterial cells were grown in presence of the test compound and then exposed to UV while, in other case the bacteria were exposed to the two wavelength of UV light filtered through a UV transparent film coated with the compound and using uncoated film as control.
UV Protection Assays for the Bacteria Cultivated in Presence of the Compounds
(§2) Step A: Growing bacterial cultures: The wild type strain CA 8000 of Escherichia coli was in the assays. A single colony was inoculated in 5 ml Luria broth and incubated at 37° C. temperature for 16 hour in a water bath shaker. Bacteria were grown in presence of test compounds with plain LB as growth medium.
Step B: Determining killing percentage of bacteria in relation to UV exposure time: This was done in the following steps.
a. The broth culture was diluted to 10 times in sterile water.
b. About 0.3 ml of the diluted bacterial suspension was transferred to the petriplates forming a thin layer at the bottom (in replicates).
c. In the dark room a UV source was placed at least 10 cm above the plates (This distance may vary depending upon the need of the experiment)
d. The cfu (colony forming unit) count was determined by serially diluting the exposed and control bacteria and plating on the Luria agar plate followed by counting the viable units of the bacteria forming colonies upon incubation at 37° C. overnight.
These two exposure levels were used further in our experiment to test the efficacy of different compounds for UV protection.
Step C: The bacterial cultures were grown in presence of different concentrations of the test compounds, exposed in the same way as in step B and viable cfu count was determined.

[2] = system: Escherichia coli wild type strain CA 8000; experiment: UV protection assay through compound-coated UV transparent film; format: cell-based; conditions: for Protection (%) / Titre after UV exposure, film coated with menthyl benzoate / Killing (%), film coated with menthyl benzoate: film coated 50 μg per ml, 312 nm; for Titre after UV exposure, film coated with menthyl benzoate: initial titre 2.490 × 10^8
Source text: as §1
Exposure of the Bacteria to UV Light Through a UV Transparent Film Coated with the Compound
as §2, with “wild type strain, CA 8000” for “wild type strain CA 8000”, “coli was used in the” for “coli was in the”
Step B: The bacterial culture was harvested by centrifugation and pellet was suspended in equal amount of sterile distilled water. The bacterial pellet was harvested by centrifuging at 5000 RPM for 10 minute and suspended in 25 ml sterile distilled water.
Step C: About 0.3 ml of the broth culture of the bacteria was transferred to petriplates forming a thin layer at the bottom (in replicates). At least 5 replicates per treatment were used along with control plates containing bacteria.
Step D: The plates were covered with UV transparent film, which was coated with different concentrations of the test compounds.
Step E: In the dark room a UV source was placed at least 10 cm above the plates (which may vary depending upon the experiment). In this invention, the UV torch emitting two-fixed wavelength (312 nm and 365 nm) was used.
Step F: Light source was switched-on for different time intervals for the predetermined lethality levels based on the killing curve of control bacteria determined by UV exposure through uncoated film.
Step G: The viable cfu (colony forming unit) count was determined by serially diluting the exposed and control bacteria and then plating on the Luria agar plates followed by counting the viable units of the bacteria forming colonies (Table 1).

[3] = 120 seconds UV exposure (LD70), control 1.119 × 10^7
[4] = 120 seconds UV exposure, control 70.00%
[5] = 150 seconds UV exposure (LD80), control 0.746 × 10^7
[6] = 150 seconds UV exposure, control 80.00%
[7] = UV exposure equivalent to lethality level 10%
[8] = UV exposure equivalent to lethality level 25%
[9] = UV exposure equivalent to lethality level 50%

Compound	Titre estimated (cfu), final after UV exposure [1, 3]	Killing (%) after UV exposure [1, 4] [%]	Titre estimated (cfu), final after UV exposure [1, 5]	Killing (%) after UV exposure [1, 6] [%]	Titre estimated (cfu), Initial [1]	Killing % in comparison to the control [1]	Protection (%) [2, 7] [%]	Titre after UV exposure, film coated with menthyl benzoate [2, 7]	Killing (%), film coated with menthyl benzoate ([2]; UV exposure equivalent to lethality level 10%, uncoated film 10.04%) [%]	Protection (%) [2, 8] [%]	Titre after UV exposure, film coated with menthyl benzoate [2, 8]	Killing (%), film coated with menthyl benzoate ([2]; UV exposure equivalent to lethality level 25%, uncoated film 25.02%) [%]	Protection (%) [2, 9] [%]	Titre after UV exposure, film coated with menthyl benzoate [2, 9]	Killing (%), film coated with menthyl benzoate ([2]; UV exposure equivalent to lethality level 50%, uncoated film 50.12%) [%]	Effect on percentage of lethality of the bacteria ([2]; at all levels of lethality tested)	Most optimum concentration coated on the film for UV protection ([2]; out of all concentrations coated on the film, higher concentration does not substantially increase protection) [μg per ml]	UV protection in comparison to other known UV protectants ([1]; 50 μg/ml in culture)	Protection efficiency, comparison between compounds ([1]; descending series of the three compounds)	Safety to the bacterial system: titre (cfu) when bacteria are grown in presence of the compound ([1]; treated versus untreated cultures, no UV)
O=C(OCc1ccccc1)c1ccccc1 [Benzyl benzoate, Benzyl Benzoate]	1.460 × 10^7 cfu	60.86	1.240 × 10^7 cfu	66.75	3.73 × 10^7 cfu	much less in comparison to the control														
O=C(CC(=O)c1ccccc1)c1ccccc1 [Dibenzoyl methane]	1.162 × 10^7 cfu	68.85	1.050 × 10^7 cfu	71.85	3.73 × 10^7 cfu	much less in comparison to the control														
CC1CCC(C(C)C)C(OC(=O)c2ccccc2)C1 (stereo not shown) [Menthyl benzoate, Menthyl Benzoate]	1.660 × 10^7 cfu	55.49	1.300 × 10^7 cfu	65.15	3.73 × 10^7 cfu		70.01	2.415 × 10^8 cfu per ml	3.01	24.58	2.020 × 10^8 cfu per ml	18.87	12.67	1.400 × 10^8 cfu per ml	43.77	reduced the percentage of lethality of the bacteria	50	significant protection	better protectant than the commercially used dibenzoyl methane	no decrease of titre was observed
